Test results as given in patent US20250179052A1, “PYRIMIDINYL-OXY-QUINOLINE BASED HERBICIDAL COMPOUNDS” (SYNGENTA CROP PROTECTION AG, priority 2022, published 2025).

Experiments:
Conditions in all cases: 250 g/ha, evaluated after 13 days, five-point scale
AMAPA [1] = test: Pre-emergence herbicidal glasshouse test; type: in vivo, Amaranthus tuberculatus
[2] = tested on: Ipomoea hederacea (IPOHE); test: Pre-emergence herbicidal glasshouse test; type: in vivo
[3] = tested on: Ipomoea hederacea (IPOHE); test: Post-emergence herbicidal glasshouse test; type: in vivo
[4] = tested on: Echinochloa crus-galli (ECHCG); test: Pre-emergence herbicidal glasshouse test; type: in vivo
[5] = tested on: Amaranthus retoflexus (AMARE); test: Pre-emergence herbicidal glasshouse test; type: in vivo
[6] = tested on: Echinochloa crus-galli (ECHCG); test: Post-emergence herbicidal glasshouse test; type: in vivo
AMAPA [7] = test: Post-emergence herbicidal glasshouse test; type: in vivo, Amaranthus tuberculatus
[8] = tested on: Amaranthus retoflexus (AMARE); test: Post-emergence herbicidal glasshouse test; type: in vivo

| SMILES | percentage damage caused to the plant, AMAPA (AMAPA [1]) | percentage damage caused to the plant, IPOHE [2] | percentage damage caused to the plant, IPOHE [3] | percentage damage caused to the plant, ECHCG [4] | percentage damage caused to the plant, AMARE [5] | percentage damage caused to the plant, ECHCG [6] | percentage damage caused to the plant, AMAPA (AMAPA [7]) | percentage damage caused to the plant, AMARE [8] |
| --- | --- | --- | --- | --- | --- | --- | --- | --- |
| FC(F)(F)c1ncc2c(Oc3ncc(C4CC4)cn3)cccc2n1 [Compound 1.012] | 1 (1=0-20%) | 1 (1=0-20%) | 1 (1=0-20%) | 1 (1=0-20%) | 1 (1=0-20%) | 1 (1=0-20%) | 1 (1=0-20%) | 1 (1=0-20%) |
| Cc1ccc(Oc2ncc(Br)cn2)c2cnc(C(F)F)nc12 [Compound 1.023] | 1 (1=0-20%) | 1 (1=0-20%) | 1 (1=0-20%) | 1 (1=0-20%) | 2 (2=21-40%) | 1 (1=0-20%) | 3 (3=41-60%) | 2 (2=21-40%) |
| COc1nc(C)c2c(Oc3ncc(Cl)cn3)cccc2n1 [Compound 1.024] | 3 (3=41-60%) | 1 (1=0-20%) | 1 (1=0-20%) | 1 (1=0-20%) | 3 (3=41-60%) | 1 (1=0-20%) | 2 (2=21-40%) | 1 (1=0-20%) |
| Cc1cnc(Oc2ccc(C)c3nc(C(F)(F)F)ccc23)nc1 [Compound 1.025] | 1 (1=0-20%) | 1 (1=0-20%) | 2 (2=21-40%) | 1 (1=0-20%) | 1 (1=0-20%) | 1 (1=0-20%) | 3 (3=41-60%) | 2 (2=21-40%) |
| Cc1ccc(Oc2ncc(Br)cn2)c2ccc(C(F)(F)F)nc12 [Compound 1.026] | 1 (1=0-20%) | 1 (1=0-20%) | 1 (1=0-20%) | 1 (1=0-20%) | 1 (1=0-20%) | 1 (1=0-20%) | 2 (2=21-40%) | 2 (2=21-40%) |
| Cc1ccc(Oc2ncc(F)cn2)c2cnc(C(F)F)nc12 [Compound 1.027] | 2 (2=21-40%) | 1 (1=0-20%) | 2 (2=21-40%) | 1 (1=0-20%) | 2 (2=21-40%) | 1 (1=0-20%) | 2 (2=21-40%) | 2 (2=21-40%) |
| Cc1ccc(Oc2ncc(Cl)cn2)c2cnc(C(F)(F)F)nc12 [Compound 1.028] | 5 (5=81-100%) | 1 (1=0-20%) | 2 (2=21-40%) | 2 (2=21-40%) | 5 (5=81-100%) | 1 (1=0-20%) | 3 (3=41-60%) | 2 (2=21-40%) |
| Cc1ccc(Oc2ncc(F)cn2)c2ccc(C(F)(F)F)nc12 [Compound 1.029] | 3 (3=41-60%) | 1 (1=0-20%) | 2 (2=21-40%) | 1 (1=0-20%) | 2 (2=21-40%) | 1 (1=0-20%) | 4 (4=61-80%) | 3 (3=41-60%) |
| COc1ncc2c(Oc3ncc(F)cn3)ccc(Br)c2n1 [Compound 1.030] | 1 (1=0-20%) | 1 (1=0-20%) | 1 (1=0-20%) | 1 (1=0-20%) | 1 (1=0-20%) | 1 (1=0-20%) | 3 (3=41-60%) | 2 (2=21-40%) |
| COc1ncc2c(Oc3ncc(Br)cn3)ccc(Br)c2n1 [Compound 1.031] | 1 (1=0-20%) | 1 (1=0-20%) | 1 (1=0-20%) | 1 (1=0-20%) | 1 (1=0-20%) | 1 (1=0-20%) | 1 (1=0-20%) | 1 (1=0-20%) |
| FC(F)(F)c1ccc2c(Oc3ncc(Cl)cn3)ccc(Br)c2n1 [Compound 1.032] | 1 (1=0-20%) | 1 (1=0-20%) | 1 (1=0-20%) | 1 (1=0-20%) | 1 (1=0-20%) | 1 (1=0-20%) | 2 (2=21-40%) | 2 (2=21-40%) |
| Fc1cnc(Oc2ccc(Br)c3nc(C(F)(F)F)ccc23)nc1 [Compound 1.033] | 3 (3=41-60%) | 1 (1=0-20%) | 1 (1=0-20%) | 1 (1=0-20%) | 3 (3=41-60%) | 1 (1=0-20%) | 1 (1=0-20%) | 2 (2=21-40%) |
| FC(F)(F)c1ccc2c(Oc3ncc(Br)cn3)ccc(Br)c2n1 [Compound 1.034] | 1 (1=0-20%) | 1 (1=0-20%) | 1 (1=0-20%) | 1 (1=0-20%) | 1 (1=0-20%) | 1 (1=0-20%) | 1 (1=0-20%) | 1 (1=0-20%) |
| Cc1ccc(Oc2ncc(Cl)cn2)c2ccc(C(F)(F)F)nc12 [Compound 1.035] | 2 (2=21-40%) | 1 (1=0-20%) | 2 (2=21-40%) | 1 (1=0-20%) | 2 (2=21-40%) | 1 (1=0-20%) | 3 (3=41-60%) | 3 (3=41-60%) |
| Cc1cnc(Oc2ccc(C)c3nc(C(F)(F)Cl)ncc23)nc1 [Compound 1.036] | 3 (3=41-60%) | 1 (1=0-20%) | 1 (1=0-20%) | 1 (1=0-20%) | 4 (4=61-80%) | 1 (1=0-20%) | 3 (3=41-60%) | 2 (2=21-40%) |
| Cc1cnc(Oc2ccc(Cl)c3nc(C(F)(F)Cl)ncc23)nc1 [Compound 1.037] | 4 (4=61-80%) | 1 (1=0-20%) | 1 (1=0-20%) | 1 (1=0-20%) | 5 (5=81-100%) | 1 (1=0-20%) | 2 (2=21-40%) | 2 (2=21-40%) |
| Cc1nc(C(F)(F)Cl)nc2cccc(Oc3ncc(F)cn3)c12 [Compound 1.038] | 5 (5=81-100%) | 5 (5=81-100%) | 3 (3=41-60%) | 4 (4=61-80%) | 5 (5=81-100%) | 3 (3=41-60%) | 5 (5=81-100%) | 4 (4=61-80%) |
| FC(F)c1ncc2c(Oc3ncc(Br)cn3)ccc(Cl)c2n1 [Compound 1.039] | 1 (1=0-20%) | 1 (1=0-20%) | 1 (1=0-20%) | 1 (1=0-20%) | 1 (1=0-20%) | 1 (1=0-20%) | 2 (2=21-40%) | 2 (2=21-40%) |
| Cc1ccc(Oc2ncc(Cl)cn2)c2cnc(C(F)(F)Cl)nc12 [Compound 1.048] | 1 (1=0-20%) | 1 (1=0-20%) | 1 (1=0-20%) | 1 (1=0-20%) |  | 1 (1=0-20%) | 2 (2=21-40%) | 2 (2=21-40%) |
| Cc1nc(C(F)F)nc2cccc(Oc3ncc(Cl)cn3)c12 [Compound 1.067] | 3 (3=41-60%) | 2 (2=21-40%) | 3 (3=41-60%) | 1 (1=0-20%) |  | 1 (1=0-20%) | 4 (4=61-80%) | 4 (4=61-80%) |
